Read-outs that look alike come from different tables or passages of the source.
Tests used:
[1] = cited from earlier work
[2] = molecular target: fatty acids bound to albumin (Homo sapiens, UniProt P02768); assay: Liberation of 3H-labeled oleic acid bound to albumin, extraction with n-hexane; conditions: identical procedure
From the text: The capacity of arginine to liberate fatty acids bound to albumin was investigated by ^3H-labeled oleic acid.

[3] = pH of aqueous solution of solubilizing compound mixed with oleic acid; assay type: physicochemical; conditions: solubilizing compound in water with 0.833 mol equivalents of oleic acid
Method: (§1) In the following tests oleic acid was mixed with the test substances in H2O, Subsequently, log P and pH were measured and the solubility of the test substance in H2O was estimated together with an estimation of the interaction between oleic acid and the test substance according to the scheme shown below.
The solutions were rested for 1 h and pH was measured. In case of incomplete dissolution and a pH below 7 a 1M NaOH solution was added dropwise until turbidity resolved. Then the mixtures were stirred or shaken.

[4] = Estimation of the interaction between oleic acid and the test substance; assay type: physicochemical
Method: Several solubilizing compounds were tested in aqueous medium for their potential to solubilize a reference fatty acid, namely oleic acid.
as §1
(§2) The solutions were rested for 1 h and pH was measured. In case of incomplete dissolution and a pH below 7 a 1M NaOH solution was added dropwise until turbidity resolved. Then the mixtures were stirred or shaken. In order to assess the stability of the obtained micro or nanoemulsion, the solution were heated for 1 hour to 60° C. and cooled to room temperature. An other part of the clear solution was stored over night at 4° C. and then rewarmed to room temperature. Thereafter solutions were analysed for solid formation, residual oil, viscosity, turbidity, and DLS measurements were performed.
Estimation of the Interaction Between Oleic Acid and the Test Substance: • X=Interaction between oleic acid and the test substance • (X)=Interaction between oleic acid and test substance.

[5] = Dynamic laser light scattering (DLS) of oleic acid micro-/nanoemulsions; assay type: physicochemical; conditions: for Mean Size by Intensity: DLS, emulsion with oleic acid; for Part: percentage of the peak in the sample
Method: as §2
For DLS measurements a Zetasizer Nano S from Malvern (USA) was used. All measurements were repeated three times undiluted, or 1:10 and 1:100 diluted by water. For the measurements the viscosity of water and the refractory index of water were used.
Peak Maximum by Intensity: Size is directly determined from the measurement without a weighting of volume or particle number.
Peaks are presented corresponding to their percentage in the sample.
Ratio of peak maxima: Percentual distribution of particle sizes.

[6] = n-octanol and water; cited from earlier work
[7] = cited from earlier work; remark: listed apart in the source
[8] = log P of the test substance; conditions: water (H2O), test substance mixed with oleic acid
Method: as §1

[9] = Estimation of solubility of the test substance in H2O; assay type: physicochemical
Method: as §1, §2
Estimation of Solubility: • X=Compound is completely dissolved • (X)=Compound is partially dissolved • ((X))=Compound is not dissolved (visual appearance) but there is a change in pH. Therefore it is assumed that at least a small part is dissolved. • −=insoluble

[10] = Influence of the pH on the solubility of oleic acid in aqueous medium; assay type: physicochemical
Method: At the beginning the influence of the pH on the solubility of oleic acid in aqueous medium was tested. These tests were conducted in order to exclude the possibility that the observed solubility of oleic acid was due to pH changes and not primarily because of the interaction of functional groups.

Sequence of fatty acids bound to albumin (P02768 25-609): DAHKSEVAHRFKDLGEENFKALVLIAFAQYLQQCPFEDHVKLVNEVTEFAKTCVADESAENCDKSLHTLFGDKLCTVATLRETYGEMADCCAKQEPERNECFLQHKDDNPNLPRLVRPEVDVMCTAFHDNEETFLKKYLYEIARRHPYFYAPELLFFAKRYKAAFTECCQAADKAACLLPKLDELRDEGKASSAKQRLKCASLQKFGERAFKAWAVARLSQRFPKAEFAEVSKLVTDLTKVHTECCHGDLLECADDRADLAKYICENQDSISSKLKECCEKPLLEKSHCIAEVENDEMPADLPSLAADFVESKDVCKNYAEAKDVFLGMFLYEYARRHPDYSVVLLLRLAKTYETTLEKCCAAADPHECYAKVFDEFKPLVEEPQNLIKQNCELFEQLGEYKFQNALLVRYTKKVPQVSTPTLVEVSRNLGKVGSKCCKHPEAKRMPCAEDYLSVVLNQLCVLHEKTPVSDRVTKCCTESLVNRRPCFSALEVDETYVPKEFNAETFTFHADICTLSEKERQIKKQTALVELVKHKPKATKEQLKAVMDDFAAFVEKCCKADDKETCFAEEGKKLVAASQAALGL
Method for physchem: as §1

Q: Which pKa ([1]; amino group) does the source give for N=C(N)NCCCC(N)C(=O)O [L-Arginine, 2-amino-5-guanidinopentanoic acid] here?
A: The pKa was 8.99.

Q: And the pKa ([1]; carboxyl group)?
A: The pKa was 1.82.

Q: What about the logP (physchem) of the same molecule?
A: The logP was -3.52.

Q: Which “reduction of residual fatty acids as compared to arginine” value [2] does the source give for NC(=O)C[C@H](N)C(=O)O [asparagine, reference compound] here?
A: Its value is “significantly less”.

Q: What does the source list for Cl.N[C@@H](Cc1c[nH]cn1)C(=O)O.O [Histidine hydrochloride monohydrate]?
A: pH [3]: 9.30; Interaction with Oleic Acid [4]: X, E; Mean Size by Intensity [5]: 647 nm; Part [5]: 81.9%; reduction of residual fatty acids as compared to arginine [2]: significantly less; logP (physchem): -4.37

Q: With CCCCCCCC(=O)O [octanoic acid] as the molecule, how does the “log KOW” value [6] read?
A: Its value is 3.05.

Q: Which “mg soluble in water” value [7] does the source give for CO/C=C(/C(=O)OC)c1ccccc1Oc1cc(Oc2ccccc2C#N)ncn1 [azoxystrobin] here?
A: Its value is 6.7 mg/L.

Q: For sudan red, which “mg soluble in water” value [7] is on record?
A: Its value is “unsoluble”.

Q: Which “mg soluble in water” value [7] does the source give for C1=Cc2nc1c(-c1ccccc1)c1nc(c(-c3ccccc3)c3ccc([nH]3)c(-c3ccccc3)c3ccc([nH]3)c2-c2ccccc2)C=C1 [tetraphenylporphyrin] here?
A: The value was 2 mg/L.

Q: Which results are given for NCCCC[C@H](N)C(=O)O [L-Lysine]?
A: pH [3]: 9.56; Interaction with Oleic Acid [4]: X, E; Mean Size by Intensity [5]: 133 nm; Part [5]: 95.6%; reduction of residual fatty acids as compared to arginine [2]: significantly less; logP [8]: -3.42

Q: Which “mg soluble in water” value [7] does the source give for [Co+2].c1ccc2c(c1)-c1nc-2nc2[n-]c(nc3nc(nc4[n-]c(n1)c1ccccc41)-c1ccccc1-3)c1ccccc21 [co-phthalocyanine] here?
A: Its value is “unsoluble”.

Q: What does the source list for NC(=O)CC[C@H](N)C(=O)O [L-Glutamin, reference compound]?
A: Dissolved (H2O) [9]: (X); pH [3]: 8.37; Interaction with Oleic Acid [4]: ((X)); reduction of residual fatty acids as compared to arginine [2]: significantly less; logP (physchem): -2.05

Q: Which “solubility of oleic acid in aqueous medium” value (“solubility of oleic acid” for short) ([10]; pH 14) does the source give for CCCCCCCC/C=C\CCCCCCCC(=O)O [oleic acid, cis-9-octadecenoic acid] here?
A: Its value is “formation of a solid precipitate”.

Q: What about the “solubility of oleic acid” value ([10]; pH range of 9-12 at room temperature) of the same molecule?
A: Its value is “no interaction”.

Q: And the “solubility of oleic acid” value ([10]; starting at pH 13)?
A: Its value is “begins to dissolve”.
